Data reported in US20210024507A1, “Compounds” (Step Pharma S.A.S., priority 2018, published 2021).

What was measured:
[1] = system: human CTPS1; assay: RapidFire/MS-based enzyme selectivity assay, human CTPS1; format: biochemical; conditions: calculated from the CTPS1 and CTPS2 IC50 values
Procedure: The enzyme inhibitory activities against each target isoform of interest may be determined for the compounds of the invention using an optimised RapidFire high-throughput mass spectrometry (RF/MS) assay format. RF/MS assays for both human CTPS1 and CTPS2 may be performed in assay buffer consisting of 50mM HEPES (Merck), 20mM MgCl2, 5mM KCI, 1mM DTT, 0.01% Tween-20, pH to 8.0 accordingly. Human full-length active C-terminal FLAG-His-tag CTPS1 (UniProtKB - P17812, CTPS[1-591]-[…]) may be obtained from Proteros biostructures GmbH. Human full length active C-terminal FLAG-His-Avi tagged CTPS2 (UniProtKB-Q9NRF8, CTPS2 [1-586]- […]) may be obtained from Harker Bio.
Human CTPS (1 or 2) protein may be prepared in lx assay buffer to the final working protein concentration required for the reaction. A 2uL volume per well of 2× CTPS (1 or 2) protein may be mixed with 40nL of compound using acoustic (ECHO) delivery and incubated for 10 minutes at 25° C. Each isoform enzymatic reaction may be subsequently initiated by addition of 2uL per well of a 2× substrate mix in assay buffer. For hCTPS1: ATP (0.3mM), UTP (0.2mM), GTP (0.07mM) and L-glutamine (0.1mM). For hCTPS2: ATP (0.1mM), UTP (0.04mM), GTP (0.03mM) and L-glutamine (0.1mM). Each mixture may be incubated for an appropriate amount of time per isoform within the determined linear phase of the reaction at 25° C. A 60uL volume of stop solution (1% formic acid with 0.5uM ^13C9-^15N3-CTP in H2O) may be added and the plate immediately heat-sealed and centrifuged for 10 minutes at 4,000rpm. Following centrifugation, plates may be loaded onto the Agilent RapidFire microfluidic solid phase extraction system coupled to an AP14000 triple quadrupole mass spectrometer (RF/MS) for analysis.
In all cases, the enzyme converts UTP to CTP. Highly specific and sensitive multiple reaction monitoring (MRM) MS methods may be optimised for the detection of the enzymatic reaction product, CTP, and the stable isotope labelled product standard ^13C9-^15N3-CTP. Readout for data analysis may be calculated as the ratio between the peak area of the product CTP and the internal standard ^13C9-^15N3-CTP. For data reporting, the following equation may be used:
[formula] (R=ratio/readout, P=product signal area, IS=internal standard signal area)
For each screening plate, the means of the negative (DMSO) and positive control values were used for the calculation of the respective assay window (S/B) and Z′ values. The median of the respective control values was used for calculation of percent inhibition according to the following equation:
[formula] (I=Inhibition, Rneg=median of negative control readout values, Rpos=median of positive control readout values, Rsample=sample readout value)
(§1) Percentage inhibition was then plotted against compound concentration, and the 50% inhibitory concentration (IC50) was determined from the resultant concentration-response curve.
Fold selectivity between CTPS1 and CTPS2 was subsequently calculated according to the following equation: […]

[2] = molecular target: T1, human CTPS1 (Homo sapiens, UniProt P17812); assay: Human CTPS1 enzyme inhibition (ADP-Glo Max assay); format: biochemical; conditions: human full length CTPS1, 25° C., read-out: CTPS1 (Human CTPS1 Enzyme Inhibition, IC50 grouped by potency range)
T1 construct: purchased Proteros biostructures GmbH
T1 sequence (P17812 1-591): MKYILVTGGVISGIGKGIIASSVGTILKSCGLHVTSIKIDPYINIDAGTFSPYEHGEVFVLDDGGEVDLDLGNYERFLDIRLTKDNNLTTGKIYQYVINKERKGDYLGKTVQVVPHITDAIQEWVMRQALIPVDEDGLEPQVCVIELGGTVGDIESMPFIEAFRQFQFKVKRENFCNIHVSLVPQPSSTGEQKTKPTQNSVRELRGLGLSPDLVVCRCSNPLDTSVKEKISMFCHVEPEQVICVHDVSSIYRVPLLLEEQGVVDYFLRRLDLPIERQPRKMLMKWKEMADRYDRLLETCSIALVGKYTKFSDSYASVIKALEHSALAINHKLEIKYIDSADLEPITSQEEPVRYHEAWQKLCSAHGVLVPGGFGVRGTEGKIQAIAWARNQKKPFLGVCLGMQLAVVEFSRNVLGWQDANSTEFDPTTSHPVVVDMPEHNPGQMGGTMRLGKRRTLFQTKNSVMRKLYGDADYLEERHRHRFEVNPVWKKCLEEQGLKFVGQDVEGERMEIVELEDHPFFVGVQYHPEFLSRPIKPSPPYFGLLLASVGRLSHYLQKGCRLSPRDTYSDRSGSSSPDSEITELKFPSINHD
Procedure: The enzyme inhibitory activities of compounds invented against the target of interest were determined using the ADP-GIoTM Max assay (Promega, UK). Assays for human CTPS1 were performed in lx assay buffer containing 50mM Tris, 10mM MgCl2, 0.01% Tween-20, pH to 8.0 accordingly. Finally, immediately before use, L-cysteine was added to the lx assay buffer to a final concentration of 2mM. All reagents are from Sigma-Aldrich unless specified otherwise. Human full length active C-terminal FLAG-Hiss-tag CTPS1 (UniProtKB - P17812, CTPS[1-591]-[…]) was obtained from Proteros biostructures GmbH.
Assay Procedure 3× human CTPS1 protein was prepared in lx assay buffer to the final working protein concentration required for the reaction. A 2uL volume per well of 3x human CTPS1 protein was mixed with 2uL per well of 3× test compound (compound prepared in lx assay buffer to an appropriate final 3× compound concentration respective to the concentration response curve designed for the compounds under test) for 10 minutes at 25° C. The enzymatic reaction was then initiated by addition of a 2uL per well volume of a pre-mixed substrate mix (UltraPure ATP from ADP-GIo™ Max kit (0.31mM), GTP (0.034mM), UTP (0.48mM) and L-glutamine (0.186mM)) and the mixture was incubated for an appropriate amount of time within the determined linear phase of the reaction at 25° C. under sealed plate conditions with constant agitation at 500 revolutions per minute (rpm). ADP-GIo™ Max reagent was added for 60 minutes ([…] per well) and subsequently ADP-GIo™ Max development reagent was added for 60 minutes (12uL per well) prior to signal detection in a microplate reader (EnVision® Multilabel Reader, Perkin Elmer). Following each reagent addition over the course of the assay, assay plates were pulse centrifuged for 30 seconds at 500rpm.
In all cases, the enzyme converts ATP to ADP and the ADP-GIo™ Max reagent subsequently depletes any remaining endogenous ATP in the reaction system. The ADP-GIo™ Max detection reagent converts the ADP that has been enzymatically produced back into ATP and using ATP as a substrate together with luciferin for the enzyme luciferase, light is generated which produces a detectable luminescence. […] The percentage inhibition produced by each concentration of compound was calculated using the equation shown below: […]
as §1

Compound	Selectivity (fold selectivity between CTPS1 and CTPS2) [1]	IC50 [2] [nM]
CCOc1cncc(-c2ccc(NC(=O)C(C)(C)c3nc(NS(=O)(=O)C4CC4)ncc3C)cc2)n1 [P70, 2-(2-(cyclopropanesulfonamido)-5-methylpyrimidin-4-yl)-N-(4-(6-ethoxypyrazin-2-yl)phenyl)-2-methylpropanamide]	+ (2-30 fold (+))	–
CCOc1cncc(-c2ccc(NC(=O)C(C)(C)c3ccnc(NS(=O)(=O)C4CC4)n3)c(C#N)c2)n1 [P34, N-(2-cyano-4-(6-ethoxypyrazin-2-yl)phenyl)-2-(2-(cyclopropanesulfonamido)pyrimidin-4-yl)-2-methylpropanamide]	+ (2-30 fold (+))	–
CCOc1cncc(-c2ccc(NC(=O)C(C)(C)c3ccnc(NS(=O)(=O)C4CC4)n3)c(F)c2)n1 [P38, 2-(2-(cyclopropanesulfonamido)pyrimidin-4-yl)-N-(4-(6-ethoxypyrazin-2-yl)-2-fluorophenyl)-2-methylpropanamide]	+ (2-30 fold (+))	–
CC(C)Oc1cncc(-c2ccc(NC(=O)C(C)(C)c3ccnc(NS(=O)(=O)C4CC4)n3)nc2)n1 [P9, 2-(2-(cyclopropanesulfonamido)pyrimidin-4-yl)-N-(5-(6-isopropoxypyrazin-2-yl)pyridin-2-yl)-2-methylpropanamide]	+++ (>60 fold (+++))	–
CCOc1cncc(-c2ccc(NC(=O)Cc3ccnc(NS(=O)(=O)C4CC4)n3)cc2)n1 [P18, 2-(2-(cyclopropanesulfonamido)pyrimidin-4-yl)-N-(4-(6-ethoxypyrazin-2-yl)phenyl)acetamide]	++ (>30-60 fold (++))	–
CCOc1cncc(-c2ccc(NC(=O)C3(c4ccnc(NS(=O)(=O)C5CC5)n4)CCCC3)cc2)n1 [P2, 1-(2-(Cyclopropanesulfonamido)pyrimidin-4-yl)-N-(4-(6-ethoxypyrazin-2-yl)phenyl)cyclopentanecarboxamide]	+++ (>60 fold (+++))	–
CCC(C(=O)Nc1ccc(-c2cncc(OCC(F)(F)F)c2)cc1F)c1ccnc(NS(=O)(=O)C2CC2)n1 (stereo not shown) [P91, 2-(2-(cyclopropanesulfonamido)pyrimidin-4-yl)-N-(2-fluoro-4-(5-(2,2,2-trifluoroethoxy)pyridin-3-yl)phenyl)butanamide]	–	100 to 1000
CCC(C(=O)Nc1ccc(-c2cncc(OCC(F)(F)F)c2)cc1)c1ccnc(NS(=O)(=O)C2CC2)n1 (stereo not shown) [P100, 2-(2-(cyclopropanesulfonamido)pyrimidin-4-yl)-N-(4-(5-(2,2,2-trifluoroethoxy)pyridin-3-yl)phenyl)butanamide]	–	100 to 1000
CCC(C(=O)Nc1ccc(-c2cncc(OC(C)C)n2)cc1F)c1ccnc(NS(=O)(=O)C2CC2)n1 (stereo not shown) [P97, 2-(2-(cyclopropanesulfonamido)pyrimidin-4-yl)-N-(2-fluoro-4-(6-isopropoxypyrazin-2-yl)phenyl)butanamide]	–	≤ 100

More lines, now with the values ahead:

Selectivity (fold selectivity between CTPS1 and CTPS2) [1]	IC50 [2] [nM]	Compound
+++ (>60 fold (+++))	–	CCOc1cncc(-c2ccc(NC(=O)C(C)(OC)c3cncc(NS(=O)(=O)C4CC4)n3)nc2)n1 (single isomer, unassigned) [P205a, 2-(6-(cyclopropanesulfonamido)pyrazin-2-yl)-N-(5-(6-ethoxypyrazin-2-yl)pyridin-2-yl)-2-methoxypropanamide]
–	100 to 1000	CCOc1cncc(-c2ccc(NC(=O)C(C)(CCOC)c3cncc(NS(C)(=O)=O)n3)nc2)n1 (stereo not shown) [P199, N-(5-(6-ethoxypyrazin-2-yl)pyridin-2-yl)-4-methoxy-2-methyl-2-(6-(methylsulfonamido)pyrazin-2-yl)butanamide]
–	100 to 1000	CCOc1cncc(-c2ccc(C(=O)NC(C)(CC)c3ccnc(NS(=O)(=O)C4CC4)n3)c(F)c2)n1 (stereo not shown) [P220, N-(2-(2-(cyclopropanesulfonamido)pyrimidin-4-yl)butan-2-yl)-4-(6-ethoxypyrazin-2-yl)-2-fluorobenzamide]
–	≤ 100	CCC(C(=O)Nc1ccc(-c2cncc(OC)n2)cc1)c1ccnc(NS(=O)(=O)C2CC2)n1 (stereo not shown) [P106, 2-(2-(cyclopropanesulfonamido)pyrimidin-4-yl)-N-(4-(6-methoxypyrazin-2-yl)phenyl)butanamide]
–	100 to 1000	CCC(NC(=O)c1ccc(-c2cncc(Cl)c2)cc1F)c1ccnc(NS(=O)(=O)C2CC2)n1 (stereo not shown) [P212, 4-(5-chloropyridin-3-yl)-N-(1-(2-(cyclopropanesulfonamido)pyrimidin-4-yl)propyl)-2-fluorobenzamide]
–	100 to 1000	CCC(C(=O)Nc1ccc(-c2cnccn2)cc1)c1ccnc(NS(=O)(=O)C2CC2)n1 (stereo not shown) [P109, 2-(2-(cyclopropanesulfonamido)pyrimidin-4-yl)-N-(4-(pyrazin-2-yl)phenyl)butanamide]
–	≤ 100	CCC(C(=O)Nc1ccc(-c2cncc(OC(C)C)n2)cc1)c1ccnc(NS(=O)(=O)C2CC2)n1 (stereo not shown) [P107, 2-(2-(cyclopropanesulfonamido)pyrimidin-4-yl)-N-(4-(6-isopropoxypyrazin-2-yl)phenyl)butanamide]
–	100 to 1000	CC(C(=O)Nc1ccc(-c2cccnc2)cc1)c1ccnc(NS(=O)(=O)C2CC2)n1 (stereo not shown) [P111, 2-(2-(cyclopropanesulfonamido)pyrimidin-4-yl)-N-(4-(pyridin-3-yl)phenyl)propanamide]
–	≤ 100	CCOc1cncc(-c2ccc(NC(=O)C(C)(OC)c3cncc(NS(=O)(=O)C4CC4)n3)nc2)n1 (stereo not shown) [P205, 2-(6-(cyclopropanesulfonamido)pyrazin-2-yl)-N-(5-(6-ethoxypyrazin-2-yl)pyridin-2-yl)-2-methoxypropanamide]
–	100 to 1000	CCC(C(=O)Nc1ccc(-c2cncc(Cl)n2)cc1)c1ccnc(NS(=O)(=O)C2CC2)n1 (stereo not shown) [P104, N-(4-(6-chloropyrazin-2-yl)phenyl)-2-(2-(cyclopropanesulfonamido)pyrimidin-4-yl)butanamide]
